Results published in patent publication US4436726A, “N-Acylpeptide compound, processes for the preparation thereof and the pharmaceutical compositions” (Fujisawa Pharmaceutical Co., Ltd., priority 1980, dated 1984).

Experiments:
[1] = system: complement serum (guinea pig complement); assay: Anticomplementary activity (inhibition of hemolysis of sensitized erythrocytes); assay type: biochemical; details: 50% hemolysis inhibition, 37° C.
Protocol: The anticomplementary activity of the test compound was measured according to the test method as described in Experimental Immunochemistry, edited by E. A. Kabat and M. M. Mayer, 2nd ed., Springfield, III: C. C. Thomas (1961) pages 133-240.
A mixture of 1 ml of a 5-fold diluted solution of a Veronal buffer solution containing 1.5×10^-4 M Ca^2+ and 5×10^-4 M Mg^2+ and isotonic gelatin, 1.5 ml of complement serum (guinea pig complement) diluted 400 times with a physiological saline solution and 0.05 ml of a solution of a test compound (in this case, a test compound was dissolved in a physiological saline solution) was incubated at 37° C. for 30 minutes. To the said mixture there was added 0.4 ml of sensitized erythrocytes suspension containing 5×10^8 cells/ml and said mixture was incubated at 37° C. further for 60 minutes. After the incubation, the mixture was centrifuged in 3,000 rpm at 4° C. for 10 minutes.
The results are expressed in Table 1 as the concentration of each drugs inhibiting the hemolysis activity by 50% (IC50).

[2] = system: blood clot (fresh rabbit blood, urokinase, bovine thrombin); assay: Fibrinolytic activity (modified diluted whole blood clot lysis time method); assay type: biochemical; details: 50 μl of test compound (300 μg/ml), 37° C.
Protocol: The enhancement of the fibrinolytic activity of the test compounds was measured according to the modified diluted whole blood clot lysis time method described in
G. R. Fearnley, G. V. Balmforth, E. Fearnley: Clin. Sci. 16, 645-650 (1957)
I. S. Chohan et al: Thrombos. Diathes. Haemorrh. 33, 226 (1975) and
I. M. Nilsson et al: Handbook of Experimental Pharmacology 46, 110
Fresh rabbit blood was diluted 20 times with 1/15 M phosphate buffer (pH 7.4). A mixture of 400 μl of the diluted blood solution and 50 μl of a test compound (300 μg/ml) was incubated at 37° C. for 30 minutes. To the mixture were added 50 μl of urokinase solution (100 IU/ml) and 50 μl of bovine thrombin (100 N.I.H. u/ml). The clot produced in tubes was incubated at 37° C. for various periods of time. At the end of each incubation interval (15 minutes interval), 2.5 ml of distilled water was added to lyse erythrocytes released from clotted blood and absorbance (OD541) of the supernatant separated by centrifugation (3,000 rpm for 10 minutes) from the reaction mixture was measured. The fibrinolytic activity of the test compound was determined by the time in minutes needed for the complete lysis of the blood clot.
In the absence of a test compound, it took more than 2 hours to lyse blood clot in the above condition. However, blood clot was lysed in the presence of test compounds after 15 minutes (symbol: ++) and 45 minutes (symbol: +) incubation, respectively. Samples which were incapable of lysing blood clot within 1 hour incubation were expressed as symbol (-).

Row | Compound | Anticomplementary Activity (IC50) [1] | Fibrinolytic Activity (time needed for complete lysis of the blood clot) [2]
1 | CC(C)CCCCCCCCCCCC(=O)OC(CCCCCCCCCCCC(C)C)CC(=O)NCC(=O)N[C@@H](CO)C(=O)O (stereo partly drawn) [Example 1, N-[N-[15-methyl-3-(13-methyltetradecanoyloxy)hexadecanoyl]glycyl]-L-serine] | 1.0 µg/mL | –
2 | CCCCCCCCCCCC(=O)OC(CCCCCCCCCCC)CC(=O)NCC(=O)N[C@@H](CO)C(=O)O (stereo partly drawn) [Example 3, N-[N-(3-dodecanoyloxytetradecanoyl)glycyl]-L-serine] | 0.12 µg/mL | –
3 | CCCCCCCCCCCCCCCC(=O)OC(CCCCC)CC(=O)NCC(=O)N[C@@H](CO)C(=O)O (stereo partly drawn) [Example 4, N-[N-(3-hexadecanoyloxyoctanoyl)glycyl]-L-serine] | 1.1 µg/mL | –
4 | CCCCCCCCCCCCCCCC(=O)OC(CCCCCCCCCCCCCCC)CC(=O)NCCC(=O)N[C@H](C(=O)O)[C@@H](C)O (stereo partly drawn) [Example 7, N-[N-(3-hexadecanoyloxyoctadecanoyl)-β-alanyl]-L-threonine] | 0.02 to 0.03 µg/mL | –
5 | CC(C)CCCCCCCCCCCC(=O)OC(CCCCCCCCCCCC(C)C)CC(=O)NCCC(=O)N[C@H](C(=O)O)[C@@H](C)O (stereo partly drawn) [Example 8, N-[N-[15-methyl-3-(13-methyltetradecanoyloxy)hexadecanoyl]-β-alanyl]-L-threonine] | 0.04 to 0.06 µg/mL | –
6 | CC(C)CCCCCCCCCCCC(=O)OC(CCCCCCCCCCCC(C)C)CC(=O)NCCC(=O)N[C@@H](CO)C(=O)O (stereo partly drawn) [Example 9, N-[N-[15-methyl-3-(13-methyltetradecanoyloxy)hexadecanoyl]-β-alanyl]-L-serine] | 0.1 µg/mL | + (45 minutes (symbol: +) incubation)
7 | CCCCCCCCCCCCCCCC(=O)OC(CCCCCCCCCCCCCCC)CC(=O)NCCC(=O)N[C@@H](CO)C(=O)O (stereo partly drawn) [Example 10, N-[N-(3-hexadecanoyloxyoctadecanoyl)-β-alanyl]-L-serine] | 0.03 to 0.04 µg/mL | –
8 | CC(C)CCCCCCCCCCCC(=O)OC(CCCCCCCCCCCC(C)C)CC(=O)NCC(=O)N[C@H](C(=O)O)[C@@H](C)O (stereo partly drawn) [Example 11, N-[N-[15-methyl-3-(13-methyltetradecanoyloxy)hexadecanoyl]glycyl]-L-threonine] | 0.36 µg/mL | + (45 minutes (symbol: +) incubation)
9 | CC(C)CCCCCCCCCCCC(=O)OC(CCCCCCCCCCCC(C)C)CC(=O)N[C@@H](C)C(=O)N[C@@H](CO)C(=O)O (stereo partly drawn) [Example 12, N-[N-[15-methyl-3-(13-methyltetradecanoyloxy)hexadecanoyl]L-alanyl]-L-serine] | 0.59 µg/mL | –
10 | CC(C)CCCCCCCCCCCC(=O)OC(CCCCCCCCCCCC(C)C)CC(=O)N[C@@H](C)C(=O)N[C@H](C(=O)O)[C@@H](C)O (stereo partly drawn) [Example 13, N-[N-[15-methyl-3-(13-methyltetradecanoyloxy)hexadecanoyl]-L-alanyl]-L-thr eonine] | 0.72 µg/mL | –
11 | CCCCCCCCCCCCCCCC(=O)OC(CCCCCCCCCCCCCCC)CC(=O)N[C@@H](C)C(=O)N[C@H](C(=O)O)[C@@H](C)O (stereo partly drawn) [Example 14, N-[N-(3-hexadecanoyloxyoctadecanoyl)-L-alanyl]-L-threonine] | 0.23 µg/mL | –
12 | CC(C)CCCCCCCCCCCC(=O)OC(CCCCCCCCCCCC(C)C)CC(=O)NCC(=O)N[C@@H](Cc1ccccc1)C(=O)O (stereo partly drawn) [Example 15, N-[N-[15-methyl-3-(13-methyltetradecanoyloxy)hexadecanoyl]glycyl]-L-phenyl alanine] | 2.8 µg/mL | ++ (blood clot was lysed in the presence of test compounds after 15 minutes (symbol: ++))
13 | CC(C)CCCCCCCCCCCC(=O)OC(CCCCCCCCCCCC(C)C)CC(=O)NCCC(=O)N[C@@H](Cc1c[nH]cn1)C(=O)O (stereo partly drawn) [Example 16, N-[N-[15-methyl-3-(13-methyltetradecanoyloxy)hexadecanoyl]-β-alanyl]-L-histidine] | 4.2 µg/mL | –
14 | CC(C)CCCCCCCCCCCC(=O)OC(CCCCCCCCCCCC(C)C)CC(=O)NCC(=O)N[C@@H](Cc1ccc(O)cc1)C(=O)O (stereo partly drawn) [Example 18, N-[N-[15-methyl-3-(13-methyltetradecanoyloxy)hexadecanoyl]glycyl]-L-tyrosine] | 3.2 µg/mL | + (45 minutes (symbol: +) incubation)
15 | CC(C)CCCCCCCCCCCC(=O)OC(CCCCCCCCCCCC(C)C)CC(=O)NCC(=O)O (stereo not drawn) [Example 19, N-[15-methyl-3-(13-methyltetradecanoyloxy)hexadecanoyl]glycine] | 4.0 µg/mL | + (45 minutes (symbol: +) incubation)
16 | CC(C)CCCCCCCCCCCC(=O)OC(CCCCCCCCCCCC(C)C)CC(=O)N[C@@H](CO)C(=O)O (stereo partly drawn) [Example 20, N-[15-methyl-3-(13-methyltetradecanoyloxy)hexadecanoyl]-L-serine] | 2.8 µg/mL | + (45 minutes (symbol: +) incubation)
17 | CCCCCCCCCCCCCCCC(=O)OC(CCCCCCCCCCCCCCC)CC(=O)N[C@@H](Cc1ccccc1)C(=O)O (stereo partly drawn) [Example 26, N-(3-hexadecanoyloxyoctadecanoyl)-L-phenylalanine] | 3.5 µg/mL | + (45 minutes (symbol: +) incubation)
18 | CCCCCCCCCCCCCCCC(=O)OC(CCCCCCCCCCCCCCC)CC(=O)NCC(=O)O (stereo not drawn) [Example 27, N-(3-hexadecanoyloxyoctadecanoyl)glycine] | 0.44 µg/mL | + (45 minutes (symbol: +) incubation)
19 | CCCCCCCCCCCCCCCC(=O)OC(CCCCCCCCCCCCCCC)CC(=O)N[C@H](C(=O)N[C@H](C(=O)O)[C@@H](C)O)C(C)C (stereo partly drawn) [Example 29, N-[N-(3-hexadecanoyloxyoctadecanoyl)-L-valyl]-L-threonine] | 0.59 µg/mL | –
20 | CCCCCCCCCCCCCCCC(=O)OC(CCCCCCCCCCCCCCC)CC(=O)NCCC(=O)N[C@@H](Cc1ccccc1)C(=O)O (stereo partly drawn) [Example 32, N-[N-(3-hexadecanoyloxyoctadecanoyl)-β-alanyl]-L-phenylalanine] | 1.32 µg/mL | ++ (blood clot was lysed in the presence of test compounds after 15 minutes (symbol: ++))
21 | CCCCCCCCCCCCCCCC(=O)OC(CCCCCCCCCCCCCCC)CC(=O)NCCCCC(=O)N[C@H](C(=O)O)[C@@H](C)O (stereo partly drawn) [Example 34, N-[5-(3-hexadecanoyloxyoctadecanoyl)aminovaleryl]-L-threonine] | 0.02 µg/mL | + (45 minutes (symbol: +) incubation)
22 | CCCCCCCCCCCCCCCC(=O)OC(CCCCCCCCCCCCCC)C(=O)NCC(=O)N[C@@H](CO)C(=O)O (stereo partly drawn) [Example 35, N-[N-(2-hexadecanoyloxyhexadecanoyl)glycyl]-L-serine] | 0.03 µg/mL | + (45 minutes (symbol: +) incubation)
23 | CCCCCCCCCCCCCCCC(=O)OC(CCCCCCCCCCCCCC)C(=O)NCCC(=O)N[C@H](C(=O)O)[C@@H](C)O (stereo partly drawn) [Example 36, N-[N-(2-hexadecanoyloxyhexadecanoyl)-β-alanyl]-L-threonine] | 0.08 µg/mL | + (45 minutes (symbol: +) incubation)
24 | CCCCCCCCCCCCCCCC(=O)OC(CCCCCCCCCCCCCCC)CC(=O)NCC(=O)N[C@@H](Cc1ccccc1)C(=O)O (stereo partly drawn) [Example 38, N-[N-(3-hexadecanoyloxyoctadecanoyl)glycyl]-L-phenylalanine] | 3.4 µg/mL | + (45 minutes (symbol: +) incubation)
25 | CCCCCCCCCCCCCCCC(=O)OC(CCCCCCCCCCCCCCC)CC(=O)NCC(=O)N[C@@H](Cc1c[nH]c2ccccc12)C(=O)O (stereo partly drawn) [Example 43, N-[N-(3-hexadecanoyloxyoctadecanoyl)glycyl]-L-tryptophan] | 5.11 µg/mL | + (45 minutes (symbol: +) incubation)
